In patent US6586440B2, “Pharmaceutical compositions of 5-alkynyl uracil compounds” (SmithKline Beecham Corporation, priority 1990, dated 2003):
Read-outs that look alike come from different tables or passages of the source.

Tests used:
[1] = target: T1, Uracil reductase (dihydropyrimidine dehydrogenase, EC 1.3.1.2) (Bos taurus, UniProt Q28007); experiment: Determination of uracil reductase inactivation; assay type: biochemical, bovine; settings: for inhibition at 100 µM: 0.5 h; for relative first-order rate constants for inactivation of enzyme (parenthetical values): fractional activity as a function of time of incubation of 50 μM inactivator with enzyme
T1 construct: (dihydropyrimidine dehydrogenase, EC 1.3.1.2) purified from bovine live; from tissue; host or cells: bovine liver ('bovine live' [sic])
T1 sequence (Q28007 1-1025): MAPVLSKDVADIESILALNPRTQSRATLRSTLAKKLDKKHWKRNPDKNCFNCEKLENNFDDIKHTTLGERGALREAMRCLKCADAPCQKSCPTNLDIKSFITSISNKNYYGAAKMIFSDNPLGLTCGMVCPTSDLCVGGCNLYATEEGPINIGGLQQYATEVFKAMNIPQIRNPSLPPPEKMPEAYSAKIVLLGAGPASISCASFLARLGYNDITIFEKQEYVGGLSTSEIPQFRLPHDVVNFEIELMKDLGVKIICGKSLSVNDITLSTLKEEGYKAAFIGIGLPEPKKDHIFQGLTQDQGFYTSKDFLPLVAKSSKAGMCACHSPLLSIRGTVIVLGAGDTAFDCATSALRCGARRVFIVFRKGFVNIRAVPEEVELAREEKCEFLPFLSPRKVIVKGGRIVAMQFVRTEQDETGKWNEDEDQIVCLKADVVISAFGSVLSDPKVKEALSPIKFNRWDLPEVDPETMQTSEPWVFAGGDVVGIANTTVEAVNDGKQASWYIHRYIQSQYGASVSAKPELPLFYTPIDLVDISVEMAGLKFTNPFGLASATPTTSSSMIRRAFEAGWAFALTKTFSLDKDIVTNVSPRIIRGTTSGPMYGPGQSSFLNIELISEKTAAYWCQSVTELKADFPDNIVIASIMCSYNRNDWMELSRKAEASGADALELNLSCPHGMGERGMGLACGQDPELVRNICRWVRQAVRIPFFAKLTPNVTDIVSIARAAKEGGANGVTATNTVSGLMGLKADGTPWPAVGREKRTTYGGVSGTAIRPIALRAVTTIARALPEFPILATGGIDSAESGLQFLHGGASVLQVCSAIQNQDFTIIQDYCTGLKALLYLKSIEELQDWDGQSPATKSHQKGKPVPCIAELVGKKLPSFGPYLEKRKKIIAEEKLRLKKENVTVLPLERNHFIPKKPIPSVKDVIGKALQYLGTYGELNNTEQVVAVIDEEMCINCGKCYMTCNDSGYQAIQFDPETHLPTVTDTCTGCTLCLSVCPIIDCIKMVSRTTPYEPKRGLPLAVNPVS
Procedure: Determination of Uracil Reductase Inactivation
Uracil reductase (1 μM) (dihydropyrimidine dehydrogenase, EC 1.3.1.2) purified from bovine live was incubated with 100 μM inactivator and 5 mM dithiothreitol (enzyme reductant) at 37° for 30 minutes in 0.05 M Tris-HCL at pH 8.0. The enzyme and inactivator were diluated 100-fold into the assay buffer, which contained 200 μM NADPH, 200 μM thymine and 1 μM dithiothreitol in Tris-HCl at pH 8.0. The velocity of the enzyme was determined spectrophotometrically. These velocities have been corrected for NADPH oxidase activity, which was less than 10% of the rate of thymine-dependent oxidation of NADPH. The % inactivation of the enzyme was equal to 100% minus the percent of enzymatic activity remaining. Enzyme incubated without inhibitor was stable under these conditions. Parenthetical values are the relative first-order rate constants for inactivation of enzyme determined from similar experiments where the fractional activity was measured as a function of the time of incubation of 50 μM inactivator with enzyme.

[2] = tested on: Male mice; experiment: Protection from zidovudine toxicity in mice; assay type: in vivo
Procedure: Male mice were doses p.o. with 1000 mg/kg/day of zidovudine for 30 days either alone, or 1.5 hours after dosing with 2 mg/kg/day of 5-ethynyluracil (5-EU). Other groups of mice (a) were dosed with 2 mg/kg/day of 5-ethynyluracil alone; and (b) served as controls, receiving neither zidovudine nor 5-ethynyluracil. Levels of haematocrit, haemoglobin and red blood cells were determined.

[3] = 1 μM enzyme incubated with 100 μM inactivator and 5 mM dithiothreitol, 37°, 30 minutes, pH 8.0, then diluted 100-fold into assay buffer, read-out: % Inactivation
[4] = male mice, p.o., 30 days, zidovudine 1000 mg/kg/day, 5-EU 2 mg/kg/day, given 1.5 hours before zidovudine in the combination

Structure (SMILES)	inhibition at 100 µM [1, 3] [%]	relative first-order rate constants for inactivation of enzyme (parenthetical values) [1]	other results
O=c1[nH]cc(C#CBr)c(=O)[nH]1 [5-bromoethynyluracil]	100	(8)	
O=c1[nH]cc(Br)c(=O)[nH]1 [5 -bromouracil, 5-bromouracil]			inhibition at 100 µM ([1]; pH 8, read-out: % Inactivation): 75%
C=C(Cl)c1c[nH]c(=O)[nH]c1=O [5-(1-chlorovinyl)uracil]	100	(5)	
C#Cc1c[nH]c(=O)[nH]c1=O [5-ethynyluracil, 5-Ethynyluracil]	100	(100)	HEMATOCRIT [2, 4]: 45.9%; HEMOGLOBIN [2, 4]: 15.1 g/dL; RED BLOOD CELLS [2, 4]: 9.1 million/µL; prevention of red-blood cell anaemia induced by treatment with zidovudine ([2]; mice): at least partially prevented
O=c1[nH]cc(C=CBr)c(=O)[nH]1 [5-bromovinyluracil]	93		
C=Cc1c[nH]c(=O)[nH]c1=O [5-vinyluracil]	86		
O=c1[nH]cc(I)c(=O)[nH]1 [Example 5-iodouracil, 5-iodouracil]	100	(4)	
CCCCC#Cc1c[nH]c(=O)[nH]c1=O [5-hex-1-ynyluracil]	90		
CC#Cc1c[nH]c(=O)[nH]c1=O [5-propynyluracil, 5-Propynyluracil]	100	(8)	melting point: 275 to 280 °C (dec.)
N#Cc1c[nH]c(=O)[nH]c1=O [5-cyanouracil]	100	(14)	
O=c1[nH]cc(C(F)(F)F)c(=O)[nH]1 [5-trifluorouracil]			% Inactivation ([1]; 1 μM enzyme incubated with 100 μM inactivator and 5 mM dithiothreitol, 37°, 30 minutes, pH 8.0, then diluted 100-fold into assay buffer): 75%
O=c1[nH]cc(C(Cl)=CBr)c(=O)[nH]1 [5-(2-bromo-1-chlorovinyl)uracil]	68		
